Measurements: patent US20250092360A1, “METHODS AND COMPOSITIONS FOR GENERATING SOMATOSTATIN+ INTERNEURONS FROM HUMAN FOREBRAIN NEURAL PROGENITOR CELLS” (Trailhead Biosystems Inc., priority 2023, published 2025)
Entries after “also recorded” stand apart in the source; their conditions may differ.

Legend:
[1] = system: medial ganglionic eminence (MGE)-derived neural progenitors; assay: HD-DoE stage 4, 12-factor experiment: SOX6 expression; assay type: cell-based, human; details: for impact on expression of SOX6: dynamic profile, in words; for factor contribution, expression of SOX6: significant negative effect, model optimized for maximal SOX6
[2] = system: human pluripotent stem cells; assay: HD-DoE stage 1, additional experiment: FEZF2 expression; assay type: cell-based; details: for impact on expression of FEZF2: dynamic profile, in words; for factor contribution, expression of FEZF2: positive impact, additional stage 1 experiment optimized for FEZF2
Method in brief: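 Human pluripotent stem cells were exposed for three days to DoE-designed combinations of effectors in basal medium, including LDN193189, PD173074, BLU9931, purmorphamine, CHIR99021, XAV939, tofacitinib and GO6983 among others. Gene expression was measured by qPCR. Values were normalized and modelled by partial least squares regression against the effector design.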

[3] = system: stage 2 neural stem cells; assay: HD-DoE stage 3 experiment: ASCL1, LHX6, DLX1 expression; assay type: cell-based, human
[4] = system: stage 2 neural stem cells; assay: Factor criticality analysis, stage 3 recipe; assay type: cell-based, human; details: other five stage 3 factors present

## c1ccc2c(-c3cnn4cc(-c5ccc(N6CCNCC6)cc5)cnc34)ccnc2c1 [LDN193189]
[1]
  impact on expression of SOX6: negative effect
  factor contribution, expression of SOX6: 9.8
[2]
  impact on expression of FEZF2: positive impact
  factor contribution, expression of FEZF2: 18

## O=C(NOC[C@H](O)CO)c1ccc(F)c(F)c1Nc1ccc(I)cc1F [PD0325901]
[1]
  impact on expression of SOX6: negative effect
  factor contribution, expression of SOX6: 5.1
[2]
  impact on expression of FEZF2: positive impact
  factor contribution, expression of FEZF2: 15

## c1ccc2c(Oc3nc(Nc4ccc(N5CCOCC5)cc4)c4ncn(C5CCCCC5)c4n3)cccc2c1 [Purmorphamine]
[3]; dynamic profile, in words
  impact on expression of ASCL1: positive trends; also recorded: Positive impact
  impact on expression of DLX1: did not have a significant negative impact
  impact on expression of LHX6: positive trends; also recorded: Positive impact
[3]; positive, model optimized for maximum ASCL1 at 1700
  factor contribution, expression of ASCL1: 12.7
[2]
  impact on expression of FEZF2: positive impact
  factor contribution, expression of FEZF2: 11
[4]; 220 with all six factors
  expression level of DLX1 when the factor is removed: stayed the same
[4]; 240 with all six factors
  expression level of LHX6 when the factor is removed: 190
[4]; 1650 with all six factors
  expression level of ASCL1 when the factor is removed: 1200
